From patent US6368580B1, “Composition suitable as food integrator and for the treatment of intestinal disorders and alterations of the bacterial flora” (Giuliani S.p.A, priority 1999, dated 2002)
“Also recorded” adds a separate entry of the source.

What was measured:
[1] = test system: Bacillus coagulans; assay: Lactic acid (L+) production in Bacillus coagulans broth culture; format: cell-based; settings: 24-hour broth culture to which lysine was added; higher than blank controls or other amino acids
[2] = test system: Bacillus coagulans; assay: Growth of Bacillus coagulans in Sabouraud's broth with added nutrient, optical density by biophotometer; format: cell-based; settings: for increase in growth of Bacillus coagulans (optical density A630), preliminary evaluations of amino acids: aspartic acid, proline, lysine, tryptophan compared, biophotometer
Experimental: Consequently, microbiological tests have been conducted by adding a number of amino acids (particularly aspartic acid, lysine, proline) to the culture medium specific for Lactobacillus. […] Evaluation of the growth of Bacillus coagulans was performed using and agar/Sabouraud's broth to which 0.5% of yeast extract was added. At this point, an attempt was made to determine which of the various amino acid components present in the yeast (aspartic acid, proline, lysine, tryptophan), and in what concentrations, were able to favor more vigorous development of the microorganism. The increase in growth was evaluated by biophotometer which recorded the optical density (A630).
In special sterilized cuvettes for biophotometry, broth cultures were prepared, with the addition to the base culture medium (10 ml of Sabouraud's broth) of: […]
One cuvette containing Sabouraud's broth alone was used as control. Each of the four broth cultures was subsequently inoculated with 100 μl of a dilution of a broth culture (overnight incubation) of Bacillus coagulans made starting from the lyophilized powder (final concentration of 10^4 cfu/ml).
The growth of the culture was evaluated in terms of optical density, using a biophotometer, which is capable of determining the degree of development on the basis of the increase in turbidity. The curvettes thus prepared were set inside the compartment of the instrument in the presence of a magnetic stirrer that was able to keep the culture in uniform suspension, a condition which enables a proper reading of the turbidity of the culture medium to be made.
The optical density appears on the ordinate, the values proportional to the number of bacteria produced. The time is given on the abscissa. The four curves shown on the graph identify the behavior, respectively, of lysine (at a concentration of 0.025 mg/ml), yeast (5 mg/ml), proline (0.01 mg/ml), and the Sabouraud's culture medium reference standard.

SMILES | lactic acid (L+) production [1] [mg/L] | growth of the Lactobacillus cells and formation of lactic acid (L+) ([2]; amino acid added to the culture medium, lysine at concentrations of the order of 0.1-1 mg/ml) | increase in growth of Bacillus coagulans (optical density A630), preliminary evaluations of amino acids [2] | growth of Bacillus coagulans (optical density, growth curve) ([2]; lysine 0.025 mg/ml in Sabouraud's broth, overnight incubation at 37° C., compared with proline 0.01 mg/ml, yeast 5 mg/ml, broth alone)
NCCCC[C@H](N)C(=O)O [lysine] | 486 | enhanced the growth of the Lactobacillus cells and the formation of lactic acid (L^+) | best results | most effective nutrient; also recorded: significantly increases the growth curve, reducing the latency phase and increasing the number of cells
O=C(O)[C@@H]1CCCN1 [proline, reference compound] | – | – | best results | –
